{"source": "paper PMC11320730", "about": "“5-Methoxy-2-aminoindane Reverses Diet-Induced Obesity and Improves Metabolic Parameters in Mice: A Potential New Class of Antiobesity Therapeutics” (ACS Pharmacology & Translational Science, 2024)", "key": {"5-HT1A receptor": {"biological_target": "5-HT1A receptor", "parameters": "method as in PMID 30904940", "details": "cited from earlier work"}, "[1]": {"test_system": "vesicular monoamine transporter (VMAT)", "parameters": "method as in PMID 29458138", "details": "cited from earlier work"}, "5-HT2B": {"biological_target": "5-HT2B (Homo sapiens, UniProt P41595)", "sequence (P41595 whole entry)": "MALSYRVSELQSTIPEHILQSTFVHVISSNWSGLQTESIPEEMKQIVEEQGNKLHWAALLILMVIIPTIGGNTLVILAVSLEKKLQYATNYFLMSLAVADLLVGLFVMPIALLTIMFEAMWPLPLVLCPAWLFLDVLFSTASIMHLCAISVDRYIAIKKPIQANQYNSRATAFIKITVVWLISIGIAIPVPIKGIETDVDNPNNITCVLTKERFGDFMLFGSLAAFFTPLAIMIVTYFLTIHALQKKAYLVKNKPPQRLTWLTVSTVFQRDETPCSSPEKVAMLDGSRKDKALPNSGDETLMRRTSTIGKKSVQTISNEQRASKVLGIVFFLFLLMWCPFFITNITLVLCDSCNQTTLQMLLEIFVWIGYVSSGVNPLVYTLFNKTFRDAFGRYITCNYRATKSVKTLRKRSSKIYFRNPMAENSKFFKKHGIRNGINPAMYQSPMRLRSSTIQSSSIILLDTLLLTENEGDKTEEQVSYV", "assay": "5-HT2B calcium influx assay (agonist) in BA/F3 cells", "type": "cell-based", "parameters": "host or cells: BA/F3 cells"}, "[2]": {"test_system": "dopamine transporter (DAT)", "parameters": "method as in PMID 30904940", "details": "cited from earlier work"}, "C57Bl/6 mice [3]": {"test_system": "C57Bl/6 mice", "assay": "Sucrose preference test", "type": "in vivo", "details": "40 mg/kg, single dose", "protocol": "Thirteen-week-old male C57BL/6 mice, maintained on a STD and housed individually, were habituated to two water bottles in their home cage for 48 h prior to the test. Baseline intake was measured by weighing the bottles. On the test day (day 1), 2 h before the onset of the dark phase, fresh water and a 1.5% sucrose solution were added to the bottles and mice were subsequently treated orally with MEAI (40 mg/kg, N = 8) or sterile water (N = 8). The mice were allowed to freely drink from either bottle for 24 h, after which the bottles were weighed to measure consumption. The study was repeated for an additional day (day 2), with the bottles switched in position (in the cage) to account for side preference. The sucrose and water intake over the 2 days were averaged, and the sucrose preference index was calculated as the average consumed sucrose solution divided by the average volume of total consumed liquid (average water plus average sucrose solution)."}, "DIO C57BL/6 mice": {"test_system": "DIO C57BL/6 mice", "assay": "Wheel running and locomotor activity in DIO mice", "type": "in vivo", "details": "40 mg/kg/day", "protocol": "Male C57BL/6 mice were used to establish DIO by feeding them a high-fat diet (HFD; 60% cal/L fat, 20% cal/L protein, and 20% cal/L carbohydrates; Research Diet, D12492) for 18 weeks. After this period, mice were treated with either vehicle (sterile water, N = 8) or MEAI (N = 11) daily for 28 days by gavage at a dose of 40 mg/kg/day. Age-matched control mice (N = 10) on a standard diet (STD; 14% kcal fat, 24% kcal protein, 62% kcal carbohydrates; NIH-31 rodent diet) received vehicle daily. The body weight of all mice was monitored daily, and total body fat and lean mass were determined by EchoMRI-100H (Echo Medical Systems LLC, Houston, Texas, USA). On day 29, at the end of the experimental period, mice were euthanized by a cervical dislocation under anesthesia. The kidneys, brain, liver, and fat pads were removed and weighed, and samples were either snap-frozen or fixed in buffered 4% formalin. Trunk blood was collected to determine the biochemical parameters.\n(§1) The activity energy expenditure was calculated based on eq 7: [drawing 7] 7\n(§2) The assessment of wheel running and locomotor activity was performed by using the Promethion High-Definition Behavioral Phenotyping System (Sable Instruments, Inc., Las Vegas, Nevada, USA). Wheel revolutions were measured with a monitor that recorded voluntary wheel running activity, and locomotor activity was quantified using disruptions of infrared XYZ beam arrays with a beam spacing of 0.25 cm. Pedestrian locomotion represented the sum of all directed ambulatory locomotion within the beam break system, using a speed cutoff of 1 cm/s. Total distance represented the sum of all distances traveled within the beam break system, not including any distance run on the wheel in meters (m); this included fine movements (such as grooming and scratching)."}, "C57Bl/6 mice [4]": {"test_system": "C57Bl/6 mice", "assay": "Acute effect of MEAI on wheel running and locomotor activity", "type": "in vivo", "details": "lean male mice, vs vehicle", "protocol": "Male 6-week-old C57Bl/6 mice (Harlan, Israel) were maintained in standard conditions under a 12 h light/dark cycle and fed ad libitum. A total of 32 animals were divided into four experimental groups (N = 8 mice per group) receiving single doses of 40, 60, or 100 mg/kg of MEAI or vehicle (sterile water), which was administered via oral gavage 2 h prior to the dark phase. The animals were monitored for 48 h postdose for drug tolerability, food and water intakes, and activity and metabolic parameters. At the end of the experiment, the animals were euthanized, and tissues (brain, liver, fat, and kidney) and blood were collected and stored in a frozen state for future analyses.\nas §1, §2"}, "5-HT2B receptor": {"test_system": "5-HT2B receptor", "parameters": "method as in PMID 29458138", "details": "cited from earlier work"}, "MAO-A": {"test_system": "MAO-A", "parameters": "method as in PMID 29458138", "details": "cited from earlier work"}, "[5]": {"test_system": "norepinephrine transporter (NET)", "parameters": "method as in PMID 30904940", "details": "cited from earlier work"}, "[6]": {"details": "vs HFD-vehicle, did not surpass STD-vehicle"}, "[7]": {"details": "single oral dose, all doses (40, 60, 100 mg/kg)"}}}
{"smiles": "COc1ccc2c(c1)CC(N)C2.Cl", "note": "(stereo not shown) [MEAI, 2,3-Dihydro-5-methoxy-1H-inden-2-amine hydrochloride]", "values": [{"measurement": "Ki", "setting": "5-HT1A receptor", "value": 2500, "unit": "nM"}, {"measurement": "binding inhibition", "setting": "[1]", "value": "unaffected"}, {"measurement": "Emax", "setting": "5-HT2B; BaF3, read-out: maximum response, calcium flux (percent of control response to serotonin at 0.25 μM), cytosolic Ca2+ mobilization, agonist mode", "value": 18.6, "unit": "%"}, {"measurement": "agonist activity at the 5-HT2B receptor", "setting": "5-HT2B; calcium flux", "value": "did not act as an agonist"}, {"measurement": "interaction with transporter", "setting": "[2]", "value": "interacts"}, {"measurement": "preference for sucrose solution", "setting": "C57Bl/6 mice [3]; 1.5% sucrose, most evident during initial 24 h, vs vehicle", "value": "significantly reduced"}, {"measurement": "water intake levels", "setting": "C57Bl/6 mice [3]; sucrose preference test", "value": "without any accompanying decrease"}, {"measurement": "voluntary wheel running", "setting": "DIO C57BL/6 mice", "value": "increased capability to run on the voluntary wheel"}, {"measurement": "wheel running speed", "setting": "DIO C57BL/6 mice", "value": "comparable to the STD-vehicle-treated group"}, {"measurement": "interaction times with food and water dispensers (time budget)", "setting": "DIO C57BL/6 mice; Results section", "value": "extended"}, {"measurement": "voluntary ambulatory behaviors (pedestrian activity and grooming)", "setting": "DIO C57BL/6 mice; pronounced during nocturnal phase", "value": "significantly boosted"}, {"measurement": "energy expenditure associated with activity levels", "setting": "DIO C57BL/6 mice; trend toward an increase", "value": "did not reach statistical significance"}, {"measurement": "pedestrian activity", "setting": "DIO C57BL/6 mice; [6]", "value": "increased"}, {"measurement": "pedestrian speed", "setting": "DIO C57BL/6 mice; [6]", "value": "increased"}, {"measurement": "total distance traveled", "setting": "DIO C57BL/6 mice; [6]", "value": "increased"}, {"measurement": "pedestrian speed", "setting": "C57Bl/6 mice [4]; single oral dose 60 mg/kg", "value": "significant increase"}, {"measurement": "total number of beam breaks (ambulation and fine movements)", "setting": "C57Bl/6 mice [4]; single oral dose 40, 60 or 100 mg/kg", "value": "minor alterations"}, {"measurement": "directed voluntary activity (pedestrian locomotion)", "setting": "C57Bl/6 mice [4]; single oral dose, 40 mg/kg and above", "value": "significant and dose-dependent increase"}, {"measurement": "average distance traveled within the cage", "setting": "C57Bl/6 mice [4]; [7]", "value": "significant elevations"}, {"measurement": "total distance traveled within the cage", "setting": "C57Bl/6 mice [4]; [7]", "value": "significant elevations"}, {"measurement": "sum of voluntary wheel running activity", "setting": "C57Bl/6 mice [4]; single oral dose, any dose tested", "value": "did not significantly affect"}, {"measurement": "activity-specific energy expenditure", "setting": "C57Bl/6 mice [4]; single oral dose", "value": "modest insignificant rise"}, {"measurement": "binding inhibition", "setting": "5-HT2B receptor", "value": "modest binding inhibition"}, {"measurement": "binding inhibition", "setting": "MAO-A", "value": "unaffected"}, {"measurement": "interaction with transporter", "setting": "[5]", "value": "interacts"}]}
